Results published in patent US7012081B2, “Anthranyl amides and their use as medicaments” (Schering AG, priority 2000, dated 2006).

Experiments:
[1] = target: VEGFR II (KDR) (Homo sapiens, UniProt P35968); assay: Inhibition of the KDR kinase activity (33P-ATP / poly-(Glu4Tyr) phosphocellulose filter assay); type: biochemical; conditions: substrate poly-(Glu4Tyr), 10 minutes at room temperature
Procedure: • Stock solution A: 3 mmol of ATP in water, pH 7.0 (−70° C.) • Stock solution B: g-33P-ATP 1 mCi/100 μl • Stock solution C: poly-(Glu4 Tyr) 10 mg/ml in water Solution for Dilutions • Substrate solvent: 10 mmol of DTT, 10 mmol of manganese chloride, 100 mmol of magnesium chloride • Enzyme solution: 120 mmol of tris/HCl, pH 7.5, 10 μM of sodium vanadium oxide Sample Application 1 Inhibition of the KDR- and FLT-1 Kinase Activity in the Presence of the Compounds According to the Invention
In a microtiter plate (without protein binding) that tapers to a point, 10 μl of substrate mix (10 μl of volume of ATP stock solution A+25 μCi of g-33P-ATP (about 2.5 μl of stock solution B)+30 μl of poly-(Glu4Tyr) stock solution C+1.21 ml of substrate solvent), 10 μl of inhibitor solution (substances corresponding to the dilutions, 3% DMSO in substrate solvent as a control) and 10 μl of enzyme solution (11.25 μg of enzyme stock solution (KDR or FLT-1 kinase) are added at 4° C. in 1.25 ml of enzyme solution (dilute). It is thoroughly mixed and incubated for 10 minutes at room temperature. Then, 10 μl of stop solution (250 mmol of EDTA, pH 7.0) is added, mixed, and 10 μl of the solution is transferred to a P 81 phosphocellulose filter. Then, it is washed several times in 0.1 M phosphoric acid. The filter paper is dried, coated with Meltilex and measured in a microbeta counter. […]

VEGFR II (KDR), sequence (P35968 20-1356, species assumed): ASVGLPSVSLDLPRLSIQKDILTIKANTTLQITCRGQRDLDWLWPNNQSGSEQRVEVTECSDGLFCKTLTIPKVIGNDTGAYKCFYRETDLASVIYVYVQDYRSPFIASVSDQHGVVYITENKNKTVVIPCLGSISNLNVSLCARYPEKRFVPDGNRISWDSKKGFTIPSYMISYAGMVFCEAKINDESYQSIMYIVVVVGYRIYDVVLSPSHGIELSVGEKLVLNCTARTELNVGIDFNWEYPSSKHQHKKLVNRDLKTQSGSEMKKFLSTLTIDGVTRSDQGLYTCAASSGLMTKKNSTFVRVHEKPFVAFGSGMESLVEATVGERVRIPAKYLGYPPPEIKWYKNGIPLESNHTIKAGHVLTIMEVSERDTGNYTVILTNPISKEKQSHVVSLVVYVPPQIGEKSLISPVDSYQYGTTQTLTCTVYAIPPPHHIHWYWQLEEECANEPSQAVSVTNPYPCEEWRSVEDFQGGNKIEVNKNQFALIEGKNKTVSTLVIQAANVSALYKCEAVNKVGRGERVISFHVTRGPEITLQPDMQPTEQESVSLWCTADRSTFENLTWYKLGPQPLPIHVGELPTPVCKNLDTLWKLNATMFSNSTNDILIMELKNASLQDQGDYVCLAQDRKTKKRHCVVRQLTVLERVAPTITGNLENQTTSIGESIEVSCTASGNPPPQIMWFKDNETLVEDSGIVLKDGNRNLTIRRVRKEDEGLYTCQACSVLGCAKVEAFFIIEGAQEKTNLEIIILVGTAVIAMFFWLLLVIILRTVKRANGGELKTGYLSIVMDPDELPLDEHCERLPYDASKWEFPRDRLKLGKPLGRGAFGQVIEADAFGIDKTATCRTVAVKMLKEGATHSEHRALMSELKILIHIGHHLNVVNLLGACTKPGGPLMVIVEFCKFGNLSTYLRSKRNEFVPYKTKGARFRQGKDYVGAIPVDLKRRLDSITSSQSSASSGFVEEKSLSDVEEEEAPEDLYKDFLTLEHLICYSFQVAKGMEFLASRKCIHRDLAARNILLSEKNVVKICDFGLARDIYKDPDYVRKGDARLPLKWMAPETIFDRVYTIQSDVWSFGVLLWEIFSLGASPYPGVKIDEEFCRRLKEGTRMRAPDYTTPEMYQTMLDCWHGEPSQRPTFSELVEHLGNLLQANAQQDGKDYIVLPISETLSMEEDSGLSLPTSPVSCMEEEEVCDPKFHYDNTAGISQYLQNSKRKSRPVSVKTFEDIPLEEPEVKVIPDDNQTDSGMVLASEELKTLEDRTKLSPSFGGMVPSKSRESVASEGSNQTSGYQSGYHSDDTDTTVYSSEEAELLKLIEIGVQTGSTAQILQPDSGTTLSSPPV

Row | SMILES | IC50 [1] [µM] | melting point [°C]
1 | O=C1CCC(CNc2ccccc2C(=O)Nc2cc3ccccc3cn2)CC1 [Example 2.0] | 0.02 | –
2 | O=C(Nc1cc2ccccc2cn1)c1ccccc1NCC1CCOCC1 [Example 1.1] | 0.05 | 140.4
